Like-named read-outs stand apart in the source and are kept apart here. Starred links: 1 amine or outer side, 2 acyl side, 3 side chain; linkers in the order of their positions; H or OH if unused. Non-standard residues stand in square brackets, D forms with d. Residues, ends and D or L forms follow the SMILES beside them. Groups on a side chain read outwards from the residue. *: point of attachment. C18 diacid = O=C(O)CCCCCCCCCCCCCCCCC(=O)*; γGlu = O=C(O)[C@H](CCC(=O)[*:2])N[*:1]; PEG2 = NCCOCCOCCC(=O)O
Key:
male C57B1/6J mice = experiment: Oral glucose tolerance test in male C57B1/6J mice; assay type: in vivo; conditions: 250 μg/kg; for AUC of blood glucose in all four OGTT curve periods (0-480 min) compared with carrier (PBS): P<0.05; for effect on oral glucose tolerance: male C57B1/6J mice
Method: 12-16 week-old male C57B1/6J mice (Nanjing University model animal research center) were randomly divided into groups 8 in each group, according to similar blood glucose (assessed by the blood samples obtained from the tail tip). After fasting (for 6 hours), the animals were administrated, and about 4 hours later, initial blood samples (fasting blood glucose level) were taken. Subsequently, the animals were administrated with an oral dose of glucose, and then put back into their cages (t=0). Blood glucose was measured at t=15 minutes, t=30 minutes, t=60 minutes, t=90 minutes and t=120 minutes. And then the animals were administrated with an oral dose of glucose again, and blood glucose was tracked until 8 hours.

DIO mice = experiment: Body weight reduction in DIO (obese) mice; assay type: in vivo; conditions: 250 μg/kg SC daily, day 11 to day 30, DIO mice; for body weight compared with normal saline group: P<0.05
Excerpt: Forty 25-week-old DIO mice (Nanjing University model animal research center) were randomly divided into five groups (compound 4, 5, 6, 7, and normal saline group), 8 in each group, having no difference in the basis weight of each group.

[1] = Pharmacokinetic analysis after IV or SC administration in male CD1 mice; conditions: for Tmax / half-life: iv
Method: Pharmacokinetic parameters of the drugs were calculated by methods of model dependence (for data obtained from IV) and model independence (data obtained from SC).

human GLP-1R = biological target: T1, human GLP-1R (Homo sapiens, UniProt P43220); experiment: In vitro activity on GLP-1R, CRE-luciferase HEK-293 cells; assay type: cell-based; conditions: for GLP-1R/GCGR: ratio of EC50 GLP-1R to EC50 GCGR
T1 construct: expressed in transfected cells
How it was run: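 HEK-293 cells stably expressing human GLP-1R or human GCGR with CRE-luciferase reporter, 5000 cells/well in DMEM/10% FBS, exposed to compound. Luminescence read after luciferase reagent; EC50 taken from concentration-response curves.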

human GCGR = biological target: T2, human GCGR (Homo sapiens, UniProt P47871); experiment: In vitro activity on GCGR, CRE-luciferase HEK-293 cells; assay type: cell-based; conditions: read-out: GCGR (EC50)
T2 construct: expressed in transfected cells
Method: 5000 of HEK-293 cells, which are used in CRE-luciferase system and express human GCGR or GLP-1R stably, were inoculated into 384 well plates according to […] DMEM/10% FBS media/well. […] After incubation, […] of luciferase reagent was added directly to each plate and mixed gently for 2 minutes. The plates were placed into an Elmer Perkin plate reader for reading. Concentration curve of the compound was made by drawing software Prism 5, and the EC50 value was calculated.

T1 sequence (P43220 24-463): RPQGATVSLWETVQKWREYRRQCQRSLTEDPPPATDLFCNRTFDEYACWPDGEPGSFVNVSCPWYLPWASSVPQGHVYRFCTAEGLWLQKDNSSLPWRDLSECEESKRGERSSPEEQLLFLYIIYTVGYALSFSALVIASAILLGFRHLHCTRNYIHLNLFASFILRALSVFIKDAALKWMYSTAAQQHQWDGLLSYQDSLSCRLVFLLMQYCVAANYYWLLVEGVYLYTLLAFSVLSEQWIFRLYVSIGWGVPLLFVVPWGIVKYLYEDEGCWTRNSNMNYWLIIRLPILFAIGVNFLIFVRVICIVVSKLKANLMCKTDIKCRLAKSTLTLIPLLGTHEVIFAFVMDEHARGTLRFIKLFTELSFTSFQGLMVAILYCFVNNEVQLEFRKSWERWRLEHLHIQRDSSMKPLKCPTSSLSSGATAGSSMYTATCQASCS
T2 sequence (P47871 26-477): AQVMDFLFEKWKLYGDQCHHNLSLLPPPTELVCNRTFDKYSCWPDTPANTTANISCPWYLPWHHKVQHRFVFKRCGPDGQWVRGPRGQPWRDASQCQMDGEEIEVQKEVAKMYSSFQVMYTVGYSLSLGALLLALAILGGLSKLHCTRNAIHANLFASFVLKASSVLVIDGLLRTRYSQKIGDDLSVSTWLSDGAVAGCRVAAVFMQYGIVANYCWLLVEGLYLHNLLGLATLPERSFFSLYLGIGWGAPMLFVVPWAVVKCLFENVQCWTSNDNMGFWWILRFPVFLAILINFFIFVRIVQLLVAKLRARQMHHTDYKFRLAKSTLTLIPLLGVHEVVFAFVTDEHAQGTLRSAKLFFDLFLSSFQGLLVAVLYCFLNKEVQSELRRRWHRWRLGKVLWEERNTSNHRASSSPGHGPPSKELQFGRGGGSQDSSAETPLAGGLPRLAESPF

| Structure (SMILES) | AUC of blood glucose in all four OGTT curve periods (0-480 min) compared with carrier (PBS) (male C57B1/6J mice) | effect on oral glucose tolerance (male C57B1/6J mice) | weight loss (DIO mice) | body weight compared with normal saline group (DIO mice) | clinical adverse effect ([1]; IV or SC route, male CD1 mice) | Tmax ([1]; mouse, in vivo) [h] | half-life ([1]; mouse, in vivo) [h] | EC50 (human GLP-1R) [nM] | GLP-1R/GCGR (human GLP-1R) | clinical adverse effect ([1]; mouse, in vivo) | peak time ([1]; mouse, in vivo, sc) | EC50 (human GCGR) [nM] | EC50 (human GLP-1R; read-out: GLP-1R (EC50)) [nM] |
| --- | --- | --- | --- | --- | --- | --- | --- | --- | --- | --- | --- | --- | --- |
| CC[C@H](C)[C@H](NC(=O)[C@H](Cc1ccccc1)NC(=O)[C@H](CCC(=O)O)NC(=O)[C@H](CCCCNC(=O)CCOCCOCCNC(=O)CCOCCOCCNC(=O)CC[C@H](NC(=O)CCCCCCCCCCCCCCCCC(=O)O)C(=O)O)NC(=O)[C@H](C)NC(=O)[C@H](C)NC(=O)[C@H](CCCCN)NC(=O)[C@H](CCC(=O)O)NC(=O)[C@H](CC(=O)O)NC(=O)[C@H](CC(C)C)NC(=O)[C@H](Cc1ccc(O)cc1)NC(=O)[C@H](CCCCN)NC(=O)[C@H](CO)NC(=O)[C@H](Cc1ccc(O)cc1)NC(=O)[C@H](CC(=O)O)NC(=O)[C@H](CO)NC(=O)[C@@H](NC(=O)[C@H](Cc1ccccc1)NC(=O)[C@@H](NC(=O)CNC(=O)[C@H](CCC(N)=O)NC(=O)[C@@H](CO)NC(=O)[C@@H](N)Cc1c[nH]cn1)[C@@H](C)O)[C@@H](C)O)C(=O)N[C@@H](CCC(=O)O)C(=O)N[C@@H](Cc1c[nH]c2ccccc12)C(=O)N[C@@H](CC(C)C)C(=O)N[C@@H](CC(C)C)C(=O)N[C@@H](CC(N)=O)C(=O)NCC(=O)NCC(=O)N1CCC[C@H]1C(=O)N[C@@H](CO)C(=O)N[C@@H](CO)C(=O)NCC(=O)N[C@@H](C)C(=O)N1CCC[C@H]1C(=O)N1CCC[C@H]1C(=O)N1CCC[C@H]1C(=O)N[C@@H](CO)C(N)=O [Compound 4] (H-H[dS]QGTFTSDYSKYLDEKAAK([PEG2-PEG2-γGlu-C18 diacid])EFIEWLLNGGPSSGAPPPS-NH2) | significantly decreased | significantly reduced the oral glucose tolerance | about 20% | significantly lower | no clinical adverse effect | ~12 | 4 to 6 | 0.13 | 0.3 |  |  |  |  |
| CSCC[C@H](NC(=O)[C@H](CC(C)C)NC(=O)[C@H](Cc1c[nH]c2ccccc12)NC(=O)[C@H](CCC(N)=O)NC(=O)[C@@H](NC(=O)[C@H](Cc1ccccc1)NC(=O)[C@H](CC(=O)O)NC(=O)[C@H](CCC(N)=O)NC(=O)[C@H](C)NC(=O)[C@H](CCCNC(=N)N)NC(=O)[C@H](CCCNC(=N)N)NC(=O)C(C)(C)NC(=O)[C@H](CC(=O)O)NC(=O)[C@H](CC(C)C)NC(=O)[C@H](Cc1ccc(O)cc1)NC(=O)[C@H](CCCCN)NC(=O)[C@H](CO)NC(=O)[C@H](CCCCNC(=O)CCOCCOCCNC(=O)CCOCCOCCNC(=O)CCCCCCCCCCCCCCCCC(=O)O)NC(=O)[C@H](CC(=O)O)NC(=O)[C@H](CO)NC(=O)[C@@H](NC(=O)[C@H](Cc1ccccc1)NC(=O)[C@@H](NC(=O)CNC(=O)[C@H](CCC(N)=O)NC(=O)[C@@H](CO)NC(=O)[C@@H](N)Cc1c[nH]cn1)[C@@H](C)O)[C@@H](C)O)C(C)C)C(=O)N[C@@H](CC(N)=O)C(=O)N[C@H](C(=O)NCC(=O)NCC(=O)N1CCC[C@H]1C(=O)N[C@@H](CO)C(=O)N[C@@H](CO)C(=O)NCC(=O)N[C@@H](C)C(=O)N1CCC[C@H]1C(=O)N1CCC[C@H]1C(=O)N1CCC[C@H]1C(=O)N[C@@H](CO)C(N)=O)[C@@H](C)O [Compound 6] | significantly decreased | significantly reduced the oral glucose tolerance | about 20% | significantly lower |  | ~12 | 4 to 6 |  | 0.3 | no clinical adverse effect | more than 12 hours |  |  |
| CSCC[C@H](NC(=O)[C@H](CC(C)C)NC(=O)[C@H](Cc1c[nH]c2ccccc12)NC(=O)[C@H](CCC(N)=O)NC(=O)[C@@H](NC(=O)[C@H](Cc1ccccc1)NC(=O)[C@H](CC(=O)O)NC(=O)[C@H](CCC(N)=O)NC(=O)[C@H](C)NC(=O)[C@H](CCCNC(=N)N)NC(=O)[C@H](CCCNC(=N)N)NC(=O)C(C)(C)NC(=O)[C@H](CC(=O)O)NC(=O)[C@H](CC(C)C)NC(=O)[C@H](Cc1ccc(O)cc1)NC(=O)[C@H](CCCCN)NC(=O)[C@H](CO)NC(=O)[C@H](CCCCNC(=O)CCOCCOCCNC(=O)CCOCCOCCNC(=O)CC[C@H](NC(=O)CCCCCCCCCCCCCCCCC(=O)O)C(=O)O)NC(=O)[C@H](CC(=O)O)NC(=O)[C@H](CO)NC(=O)[C@@H](NC(=O)[C@H](Cc1ccccc1)NC(=O)[C@@H](NC(=O)CNC(=O)[C@H](CCC(N)=O)NC(=O)[C@@H](CO)NC(=O)[C@@H](N)Cc1c[nH]cn1)[C@@H](C)O)[C@@H](C)O)C(C)C)C(=O)N[C@@H](CC(N)=O)C(=O)N[C@H](C(=O)NCC(=O)NCC(=O)N1CCC[C@H]1C(=O)N[C@@H](CO)C(=O)N[C@@H](CO)C(=O)NCC(=O)N[C@@H](C)C(=O)N1CCC[C@H]1C(=O)N1CCC[C@H]1C(=O)N1CCC[C@H]1C(=O)N[C@@H](CO)C(N)=O)[C@@H](C)O [Compound 8] |  |  |  |  |  |  |  |  | 1.1 |  |  | 0.18 |  |
| CSCC[C@H](NC(=O)[C@H](CC(C)C)NC(=O)[C@H](Cc1c[nH]c2ccccc12)NC(=O)[C@H](CCC(N)=O)NC(=O)[C@@H](NC(=O)[C@H](Cc1ccccc1)NC(=O)[C@H](CC(=O)O)NC(=O)[C@H](CCC(N)=O)NC(=O)[C@H](C)NC(=O)[C@H](CCCNC(=N)N)NC(=O)[C@H](CCCNC(=N)N)NC(=O)[C@H](CCCCNC(=O)CCOCCOCCNC(=O)CCOCCOCCNC(=O)CCCCCCCCCCCCCCCCC(=O)O)NC(=O)[C@H](CC(=O)O)NC(=O)[C@H](CC(C)C)NC(=O)[C@H](Cc1ccc(O)cc1)NC(=O)[C@H](CCCCN)NC(=O)[C@H](CO)NC(=O)[C@H](Cc1ccc(O)cc1)NC(=O)[C@H](CC(=O)O)NC(=O)[C@H](CO)NC(=O)[C@@H](NC(=O)[C@H](Cc1ccccc1)NC(=O)[C@@H](NC(=O)CNC(=O)[C@H](CCC(N)=O)NC(=O)[C@@H](CO)NC(=O)[C@@H](N)Cc1c[nH]cn1)[C@@H](C)O)[C@@H](C)O)C(C)C)C(=O)N[C@@H](CC(N)=O)C(=O)N[C@H](C(=O)NCC(=O)NCC(=O)N1CCC[C@H]1C(=O)N[C@@H](CO)C(=O)N[C@@H](CO)C(=O)NCC(=O)N[C@@H](C)C(=O)N1CCC[C@H]1C(=O)N1CCC[C@H]1C(=O)N1CCC[C@H]1C(=O)N[C@@H](CO)C(N)=O)[C@@H](C)O [Compound 9] |  |  |  |  |  |  |  |  | 2.9 |  |  | 0.18 |  |
| CSCC[C@H](NC(=O)[C@H](CC(C)C)NC(=O)[C@H](Cc1c[nH]c2ccccc12)NC(=O)[C@H](CCC(N)=O)NC(=O)[C@@H](NC(=O)[C@H](Cc1ccccc1)NC(=O)[C@H](CC(=O)O)NC(=O)[C@H](CCC(N)=O)NC(=O)[C@H](C)NC(=O)[C@H](CCCNC(=N)N)NC(=O)[C@H](CCCNC(=N)N)NC(=O)[C@H](CCCCNC(=O)CCOCCOCCNC(=O)CCOCCOCCNC(=O)CC[C@H](NC(=O)CCCCCCCCCCCCCCCCC(=O)O)C(=O)O)NC(=O)[C@H](CC(=O)O)NC(=O)[C@H](CC(C)C)NC(=O)[C@H](Cc1ccc(O)cc1)NC(=O)[C@H](CCCCN)NC(=O)[C@H](CO)NC(=O)[C@H](Cc1ccc(O)cc1)NC(=O)[C@H](CC(=O)O)NC(=O)[C@H](CO)NC(=O)[C@@H](NC(=O)[C@H](Cc1ccccc1)NC(=O)[C@@H](NC(=O)CNC(=O)[C@H](CCC(N)=O)NC(=O)[C@@H](CO)NC(=O)[C@@H](N)Cc1c[nH]cn1)[C@@H](C)O)[C@@H](C)O)C(C)C)C(=O)N[C@@H](CC(N)=O)C(=O)N[C@H](C(=O)NCC(=O)NCC(=O)N1CCC[C@H]1C(=O)N[C@@H](CO)C(=O)N[C@@H](CO)C(=O)NCC(=O)N[C@@H](C)C(=O)N1CCC[C@H]1C(=O)N1CCC[C@H]1C(=O)N1CCC[C@H]1C(=O)N[C@@H](CO)C(N)=O)[C@@H](C)O [Compound 11] |  |  |  |  |  |  |  |  | 0.8 |  |  | 0.18 | 0.15 |

Reference: patent US10479819B2 (priority 2014, dated 2019)
